Reference: patent US11325937B2, “Glycoside compound and preparation method therefor, composition, application, and intermediate” (SHANGHAI HUTCHISON PHARMACEUTICALS LIMITED, priority 2018, dated 2022)
Read-outs that look alike come from different tables or passages of the source.

Tested on: VEGF-A mRNA expression in macrophages (RAW264.7)
Assay: In vitro macrophage experiment: activity of compounds to promote VEGF-A mRNA expression (RT-qPCR)
Assay type: cell-based
Conditions: Mus musculus, read-out: Expression level of VEGF-A mRNA
From the text: 1.1. Specific steps for activity screening: 1-10×10^6 macrophages (RAW264.7) in logarithmic growth phase were transferred to a cell culture plate. The test compounds (Compounds TG-001, TG-002, TG-003, TG-004, TG-005, TG-006, TG-007, TG-008, TG-009, TG-010, TG-011, TG-012, TG-013, TG-014, TG-015, TG-016, TG-017, TG-018, TG-019, TG-020, TG-021, TG-022, TG-023, TG-024, TG-025, TG-026, TG-027, TG-028, TG-029, TG-030, TG-031, TG-032, TG-033, TG-034, TG-035, TG-036, TG-037, TG-045, TG-039, TG-040 TG-041, TG-042, TG-043, TG-044, TG-045, TG-052, TG-053, TG-054, TG-047, TG-048, TG-046, TG-049, TG-050, TG-051, TG-055 and TG-056) were respectively diluted into various concentrations, and separately added to the cell culture plate containing macrophage. The cells were cultured for 3 h in a complete medium (RPMI 1640 medium:fetal bovine serum:tri-resistance screening agent (i.e. penicillin-streptomycin-gentamicin, Beijing Leagene Biotechnology Co., Ltd.)=89:10:1 based on volume) in a cell incubator at 37° C. and 5% CO2. The cells were lyzed by Trizol (Beijing ComWin Biotech Co., Ltd) to extract RNA, and the RNA concentration was measured using a microvolume nucleic acid and protein analyzer (Nanodrop2000c). The required volume V of RNA was calculated according to the RNA concentration, and the RNA reverse transcription reaction system was prepared according to Table 1. Then RNA reverse transcription (cDNA synthesis) (RT Easy™ I (For first-strand cDNA synthesis) Reverse Transcription Kit, Chengdu ForeGene Biotechnology Co., Ltd.) was carried out according to the conditions described in Table 2. The resulting cDNA was used to prepare a fluorescence quantitative PCR reaction solution according to Table 3. The fluorescence quantitative PCR reaction conditions were set according to Table 4, and the fluorescence quantitative PCR reaction (Real time PCR Easy™-SYBR Green Fluorescence Quantification Kit, Chengdu ForeGene Biotechnology Co., Ltd.) was performed using cDNA from the reverse transcription reaction as a template. The relative expression level 2^−ΔΔCt of the target gene was calculated from the Ct value of each sample with the blank control group as a control and β-Actin as an internal reference.
Based on the maximum level of VEGF-A mRNA expression promoted by a drug at a certain concentration, the activity of the drug was determined. The expression level of VEGF-A mRNA in macrophages was defined as 1 when no drug was added. Using a traditional Chinese medicine injection Salvianolate that is used in the treatment of Cardio-cerebrovascular disease and promotes a maximum level of VEGF-A mRNA expression of 6 in macrophages (the results are shown in Table 5) as a judgment standard, the compound promoting a maximum level of VEGF-A mRNA expression of 4 or more in macrophage was a target compound. That is, when the maximum level of VEGF-A mRNA expression in macrophages promoted by the test compound is over 4-fold higher than the expression level of VEGF-A mRNA in macrophages without the addition of the test compound, the test compound was a preliminary target compound promoting angiogenesis.

[1] = 1 μM, RAW264.7 macrophages, 3 h, relative expression 2^-ΔΔCt, no drug = 1
[2] = 0.1 mM, RAW264.7 macrophages, 3 h, relative expression, no drug = 1
[3] = 0.5 mM, RAW264.7 macrophages, 3 h, relative expression, no drug = 1
[4] = 1 mM, RAW264.7 macrophages, 3 h, relative expression, no drug = 1
[5] = 2 mM, RAW264.7 macrophages, 3 h, relative expression, no drug = 1
[6] = 3 mM, RAW264.7 macrophages, 3 h, relative expression, no drug = 1

Compound	fold induction at 1 µM [1]	fold induction at 100 µM [2]	fold induction at 500 µM [3]	fold induction at 1000 µM [4]	fold induction at 2000 µM [5]	fold induction at 3000 µM [6]	fold induction at 1 µM (RAW264.7, 3 h)	fold induction at 100 µM (RAW264.7, 3 h)	fold induction at 500 µM (RAW264.7, 3 h)	fold induction at 1000 µM (RAW264.7, 3 h)	fold induction at 2000 µM (RAW264.7, 3 h)	fold induction at 3000 µM (RAW264.7, 3 h)
OC[C@H]1O[C@@H](OCCCCc2ccc(OCc3ccc(C(F)(F)F)cc3)cc2)[C@H](O)[C@@H](O)[C@@H]1O [TG-026]	1.44	6.85	7.92	8.13	7.92	8.16						
OC[C@H]1O[C@@H](OCCCCc2ccc(OCc3cccc(F)c3)cc2)[C@H](O)[C@@H](O)[C@@H]1O [TG-027]	1.66	6.36	3.83	3.93	1.07	0.43						
COc1ccc(CCCCO[C@H]2O[C@@H](CO)[C@H](O)[C@@H](O)[C@@H]2O)cc1 [TG-029]	2.21	1.51	1.02	1.54	2.6	2.3						
COc1ccc(CCCCO[C@@H]2O[C@H](CO)[C@H](O)[C@H](O)[C@H]2O)cc1 [TG-030]	0.43	0.32	0.09	0.19	0.19	0.37						
COc1ccc(OCCCO[C@@H]2O[C@H](CO)[C@@H](O)[C@H](O)[C@H]2O)cc1 [TG-031]							0.2	0.18	0.11	2.57	1.39	0.7
COc1ccc(COCCO[C@@H]2O[C@H](CO)[C@@H](O)[C@H](O)[C@H]2O)cc1 [TG-032]							2.79	4.89	0.92	3.68	1.83	0.96
COc1ccc(CN(CCO[C@@H]2O[C@H](CO)[C@@H](O)[C@H](O)[C@H]2O)C(=O)OC(C)(C)C)cc1 [TG-033]							0.95	1.87	38.9	3.76	0.99	0.04
COc1ccc(CN(CCO[C@@H]2O[C@H](CO)[C@@H](O)[C@H](O)[C@H]2O)C(=O)OCc2ccccc2)cc1 [TG-034]							1.36	1.32	4.44	2.93	7.16	5.43
COc1ccc(N(CCCO[C@@H]2O[C@H](CO)[C@@H](O)[C@H](O)[C@H]2O)C(=O)OCc2ccccc2)cc1 [TG-035]							1.66	0.44	1.72	1.06	0.55	0.2
COc1ccc(CNCCO[C@@H]2O[C@H](CO)[C@@H](O)[C@H](O)[C@H]2O)cc1 [TG-036]							1.19	1.39	0.32	1.09	0.43	1.75
COc1ccc(NCCCO[C@@H]2O[C@H](CO)[C@@H](O)[C@H](O)[C@H]2O)cc1 [TG-037]							1.3	0.62	1.77	1.69	1.8	3.23
CC(C)Oc1ccc(CCCCO[C@@H]2O[C@H](CO)[C@@H](O)[C@H](O)[C@H]2O)cc1 [TG-038]	0.79	1.06	0.96	1.71	1.32	1.29						
OC[C@H]1O[C@@H](OCCCCc2ccc(OCC3CC3)cc2)[C@H](O)[C@@H](O)[C@@H]1O [TG-039]	1.18	2.67	9.43	1.7	0.3	0.18						
CC(C)(C)CCOc1ccc(CCCCO[C@@H]2O[C@H](CO)[C@@H](O)[C@H](O)[C@H]2O)cc1 [TG-040]	2.09	3.97	1.46	0.81	0.22	0.28						
CC(C)(C)COc1ccc(CCCCO[C@@H]2O[C@H](CO)[C@@H](O)[C@H](O)[C@H]2O)cc1 [TG-041]	0.62	0.84	1.97	8.17	0.16	0.23						
CC1(C)CCOc2ccc(CCCCO[C@@H]3O[C@H](CO)[C@@H](O)[C@H](O)[C@H]3O)cc21 [TG-042]	11	7.25	9.86	1.11	0.63	0.84						
CCCCCCCCCCCCCCCCOc1ccc(CCCCO[C@@H]2O[C@H](CO)[C@@H](O)[C@H](O)[C@H]2O)cc1 [TG-043]	1.16	1.52		3.36	4.09	4.29						
COCCOCCOCCOCCOc1ccc(CCCCO[C@@H]2O[C@H](CO)[C@@H](O)[C@H](O)[C@H]2O)cc1 [TG-044]	0.65	1.18	1.56	1.04	0.79	0.95						
COc1ccc(CCCCO[C@@H]2O[C@H](CO)[C@@H](O[C@@H]3OC(CO)[C@H](O)[C@H](O)[C@H]3O)[C@H](O)[C@H]2O)cc1 (some centres unmarked) [TG-045]	0.62	0.99	0.62	0.73	1.78	0.35						
COc1ccc(CCCCO[C@H]2O[C@H](CO)[C@@H](O)[C@H](O)[C@H]2O)cc1 [TG-046]	1.86	1.96	2.14	2.27	2.25	5.32						
COc1ccc(CCS[C@@H]2O[C@H](CO)[C@@H](O)[C@H](O)[C@H]2O)cc1 [TG-047]	2.12	1.93	2.34	2.84	2.6	3.45						
COc1ccc(CCCCS[C@@H]2O[C@H](CO)[C@@H](O)[C@H](O)[C@H]2O)cc1 [TG-048]	1.43	1.26	4.73	11	3.81	2.19						
OC[C@H]1O[C@@H](OCCCCc2ccc(OCc3ccccc3F)cc2)[C@H](O)[C@@H](O)[C@@H]1O [TG-050]	1.27	2.81	1.85	2.16	1.74	15.1						
